Measurements taken from patent US12116358B2, “Substituted indoles and methods of use thereof” (EPIZYME, INC., priority 2018, dated 2024).
Where two headings read alike, the source gives them in different places.

Columns and labels:
SETD2(1434-1711) = target: T1, SETD2(1434-1711) (Homo sapiens, UniProt Q9BYW2); experiment: SETD2 (1434-1711) assay; format: biochemical; conditions: read-out: SETD2 (1434-1711)
T1 construct: SETD2 (1434-1711) Assay; catalogue N/A
T1 sequence (Q9BYW2 1434-1711): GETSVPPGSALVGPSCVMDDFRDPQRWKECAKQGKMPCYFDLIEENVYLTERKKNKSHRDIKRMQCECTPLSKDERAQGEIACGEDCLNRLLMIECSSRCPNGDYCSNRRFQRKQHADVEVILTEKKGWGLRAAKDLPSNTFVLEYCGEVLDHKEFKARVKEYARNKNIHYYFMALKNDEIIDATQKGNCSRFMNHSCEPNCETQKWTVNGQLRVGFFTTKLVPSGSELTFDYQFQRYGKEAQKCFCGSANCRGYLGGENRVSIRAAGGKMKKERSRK

H3K36me3 in A549 cells = experiment: In-Cell Western (ICW) assay of SETD2 inhibitors (A549 assay); format: cell-based, human; conditions: A549 cells, read-out: SETD2 A549
Procedure: In-Cell Western (ICW) Assay of SETD2 Inhibitors (A549 Assay)
Representative Compounds of the Disclosure were tested in the A549 assay according the following protocol.
1. Reagents and Consumables:
Prepare plates with compounds. Seed A549 cells to the plates with compounds, 4,000 cells/well, 50 μl/well. Put the plates at room temperature on a non-vibrating surface for 20 minutes before placing in the incubator. Incubate the plate at 37° C. incubator with CO2 for 3 days. Remove plate from incubator and bring to room temperature. Blot media out of the plate and add 50 μL of ice cold 100% methanol. Incubate 30 minutes at room temperature. Remove methanol by aspiration. Wash 3× with PBST. Add 50 μL of Blocking Buffer+0.1% Tween 20. Incubate 1 hour. Remove Blocking Buffer, wash 3× with PBST. Add 20 μL of H3K36me3 (1:1000 dilution). […] Incubate overnight at 4° C. Wash plate 5× with PBS-T. Add 20 μL of DRAQ5 (1:1000) and IRDye 800CW Goat anti-Rabbit IgG (1:500). Incubate for 1 hour in the dark. Wash plate 5× with PBS-T. Wash plate 3× with water. Dry by blotting on paper towel, then centrifuge plate upside down on a thin layer of paper towels for 1 minute at 1000 rpm to remove excess reagent. Leave plate uncovered for ˜10 minutes out of direct light before reading. Read on Licor instrument.
4. Licor Instrument Settings:
Preset: Plate; Resolution: 84 μm; Quality: low; Focus offset: 4.0; 700 channel intensity: 2; and 800 channel intensity: 3.

SMILES	IC50 (SETD2(1434-1711)) [nM]	IC50 (H3K36me3 in A549 cells) [nM]	IC50 (H3K36me3 in A549 cells; Homo sapiens) [nM]
CCC(=O)N1CCN(c2cccc(NC(=O)c3cc4c(F)ccc(C)c4[nH]3)c2)CC1 [compound 36]	30	90	
Cc1ccc(F)c2cc(C(=O)Nc3cc(F)cc(N4CC5(CCN(CC(F)F)CC5)C4)c3)[nH]c12 [compound 40]	40	100	
Cc1ccc(F)c2cc(C(=O)Nc3cccc(N4CC5(CCN(CC(F)F)CC5)C4)c3)[nH]c12 [compound 41]	30	100	
COCC(=O)N1CCN(c2cccc(NC(=O)c3cc4c(F)ccc(C)c4[nH]3)c2)CC1 [compound 44]	40		100
Cc1ccc(F)c2cc(C(=O)Nc3cccc(N4CCN(C(=O)c5cccnc5)CC4)c3)[nH]c12 [compound 49]	30	100	
Cc1ccc(F)c2cc(C(=O)Nc3cccc(N4CCOC(CCO)C4)c3)[nH]c12 (stereo not drawn) [compound 50]	60	100	
CC(=O)N1CCN(c2cccc(NC(=O)c3cc4c(F)ccc(C)c4[nH]3)c2F)CC1 [compound 52]	70	100	
Cc1ccc(F)c2cc(C(=O)Nc3cccc(N4CCN5C(=O)N(C)CC5C4)c3)[nH]c12 (stereo not drawn) [compound 54]	30		100
Cc1ccc(F)c2cc(C(=O)Nc3cccc(N4CCN(C(=O)N(C)C)CC4)c3)[nH]c12 [compound 55]	50		100
CC(=O)N1CCC(c2cc(F)cc(NC(=O)c3cc4c(F)ccc(C)c4[nH]3)c2)C1 (stereo not drawn) [compound 56]	30	100	
Cc1ccc(F)c2cc(C(=O)Nc3cccc(N4CCC5(CC4)COC5)c3)[nH]c12 [compound 57]	30	100	
Cc1ccc(F)c2cc(C(=O)Nc3cccc(N4CCN(C)C(=O)C4)c3)[nH]c12 [compound 58]	40	100	
CCC1CN(c2cccc(NC(=O)c3cc4c(F)ccc(C)c4[nH]3)c2)CCN1C(C)=O (stereo not drawn) [compound 71]	40	200	
Cc1ccc(F)c2cc(C(=O)Nc3cccc(N4CCN(C(=O)CO)CC4)c3)[nH]c12 [compound 72]	30	200	
CC(=O)N1CCC(c2cccc(NC(=O)c3cc4c(F)ccc(C)c4[nH]3)c2)C1 (stereo not drawn) [compound 73]	40	200	
Cc1ccc(F)c2cc(C(=O)Nc3cccc(N4CCC(N5CCOCC5)C4)c3)[nH]c12 (stereo not drawn) [compound 74]	30	200	
COCCC(=O)N1CCN(c2cccc(NC(=O)c3cc4c(F)ccc(C)c4[nH]3)c2)CC1 [compound 75]	60	200	
CC(=O)N1CCN(c2cccc(NC(=O)c3cc4c(F)ccc(C)c4[nH]3)c2)CC1C(F)(F)F (stereo not drawn) [compound 77]	60	200	
CC(=O)N(C)C1CCN(c2cccc(NC(=O)c3cc4c(F)ccc(C)c4[nH]3)c2)CC1 [compound 78]	40	200	
CC(=O)N1CCN(c2cc(NC(=O)c3cc4c(F)ccc(C)c4[nH]3)ccc2F)CC1 [compound 79]	70	200	
COCc1nnc(-c2cccc(NC(=O)c3cc4c(F)ccc(C)c4[nH]3)c2)s1 [compound 81]	30	200	
CC(=O)N1CCN(c2cccc(NC(=O)c3cc4c(F)ccc(Br)c4[nH]3)c2)CC1 [compound 84]	40	200	
Cc1ccc(F)c2cc(C(=O)Nc3cccc(N4CCC(C)(O)CC4)c3)[nH]c12 [compound 87]	100		200
CCN1CCN(c2cccc(NC(=O)c3cc4c(F)ccc(C)c4[nH]3)c2)CC1=O [compound 88]	50	200	
Cc1ccc(F)c2cc(C(=O)Nc3cc(F)cc(C4CCN(C5CC(=O)N(C)C5)C4)c3)[nH]c12 (stereo not drawn) [compound 89]	30		200
Cc1ccc(F)c2cc(C(=O)Nc3cccc([C@H]4CCN5C(=O)CC[C@H]5C4)c3)[nH]c12 [compound 90]	30	200	
Cc1ccc(F)c2cc(C(=O)Nc3cccc(N4CCN(C(=O)CF)CC4)c3)[nH]c12 [compound 92]	30	200	
Cc1ccc(F)c2cc(C(=O)Nc3cccc(N4CCN(C(=O)C5CC5)CC4)c3)[nH]c12 [compound 93]	60	200	
Cc1ccc(F)c2cc(C(=O)Nc3cc(F)cc([C@@H]4CCN5C(=O)CC[C@H]5C4)c3)[nH]c12 [compound 96]	40	200	
Cc1ccc(F)c2cc(C(=O)Nc3cccc(N4CCC(N(C)CCF)C4)c3)[nH]c12 (stereo not drawn) [compound 97]	40	200	

More lines, in order of falling IC50 (SETD2(1434-1711)), values ahead:

IC50 (SETD2(1434-1711)) [nM]	IC50 (H3K36me3 in A549 cells) [nM]	IC50 (H3K36me3 in A549 cells; Homo sapiens) [nM]	SMILES
30		100	CC(=O)N1CCC(c2cccc(NC(=O)c3cc4c(F)ccc(C)c4[nH]3)c2)CC1 [compound 45]
20	70		Cc1ccc(F)c2cc(C(=O)Nc3cc(F)cc(N4CCC(N5CCn6ccnc6C5)C4)c3)[nH]c12 (stereo not drawn) [compound 29]
20	90		Cc1ccc(F)c2cc(C(=O)Nc3cccc(C4CCN5C(=O)CCC5C4)c3)[nH]c12 (stereo not drawn) [compound 37]
20	100		CC(=O)N(C)C1CCCN(c2cccc(NC(=O)c3cc4c(F)ccc(C)c4[nH]3)c2)C1 (stereo not drawn) [compound 42]
20	100		Cc1ccc(F)c2cc(C(=O)Nc3cc(F)cc(N4CCOC(CO)C4)c3)[nH]c12 (stereo not drawn) [compound 48]
20	100		Cc1ccc(F)c2cc(C(=O)Nc3cccc([C@@H]4CCN5C(=O)CC[C@@H]5C4)c3)[nH]c12 [compound 51]
20	100		Cc1ccc(F)c2cc(C(=O)Nc3cccc(N4CC(F)C(N(C)C)C4)c3)[nH]c12 (stereo not drawn) [compound 63]
20	200		COC(=O)N1CCC2(CC1)CCN(c1cccc(NC(=O)c3cc4c(F)ccc(C)c4[nH]3)c1)C2 [compound 83]
20	200		Cc1ccc(F)c2cc(C(=O)Nc3cccc(N4CC[C@@H](N(C)C)C4)c3)[nH]c12 [compound 94]
20		200	Cc1ccc(F)c2cc(C(=O)Nc3cccc(N4CCC5(CC4)COCCN5)c3)[nH]c12 [compound 95]
10	100		Cc1ccc(F)c2cc(C(=O)Nc3cc(F)cc(N4CCC(N(C)CCF)C4)c3)[nH]c12 (stereo not drawn) [compound 47]
10	100		Cc1ccc(F)c2cc(C(=O)Nc3cccc(N4CCC(N(C)C)C4)c3)[nH]c12 (stereo not drawn) [compound 59]
10	100		Cc1ccc(F)c2cc(C(=O)Nc3cccc(N4C[C@H](O)[C@@H](N(C)C)C4)c3)[nH]c12 [compound 61]
10	200		Cc1ccc(F)c2cc(C(=O)Nc3cc(Cl)cc(N4CCN(C)CC4)c3)[nH]c12 [compound 91]
9	100		Cc1ccc(F)c2cc(C(=O)Nc3cc(F)cc(N4CCN(C(=O)CN(C)C)CC4)c3)[nH]c12 [compound 62]
9		200	Cc1ccc(F)c2cc(C(=O)Nc3cc(F)cc(N4CCN(C(=O)CN(C)C)C(C)C4)c3)[nH]c12 (stereo not drawn) [compound 70]
8	70		CC(=O)N1CCC2(CCN(c3cc(F)cc(NC(=O)c4cc5c(F)ccc(C)c5[nH]4)c3)CC2)C1 [compound 30]
7	100		Cc1ccc(F)c2cc(C(=O)Nc3cc(F)cc(N4CCN(C(=O)C(C)N(C)C)CC4)c3)[nH]c12 (stereo not drawn) [compound 43]
6		80	Cc1ccc(F)c2cc(C(=O)Nc3cc(F)cc([C@H]4CC[C@@H](N5CCOCC5)CC4)c3)[nH]c12 [compound 35]
6	200		Cc1ccc(F)c2cc(C(=O)Nc3cccc([C@H]4CC[C@H](N(C)C)CC4)c3)[nH]c12 [compound 68]
5	100		Cc1ccc(F)c2cc(C(=O)Nc3cc(F)cc(N4CCC(N(C)C)C4)c3)[nH]c12 (stereo not drawn) [compound 53]
5	200		Cc1ccc(F)c2cc(C(=O)Nc3cccc(N4CCC5(CCCN5)CC4)c3)[nH]c12 [compound 86]
4	90		Cc1ccc(F)c2cc(C(=O)Nc3cc(F)cc(N4CCC(N5CCN(C(=O)CN(C)C)CC5)C4)c3)[nH]c12 (stereo not drawn) [compound 39]
3	200		Cc1ccc(F)c2cc(C(=O)Nc3cc(F)cc([C@H]4CC[C@@H](N(C)C)CC4)c3)[nH]c12 [compound 69]
